pIC50: −log10 of the molar value.
How the values were obtained:
[1] = biological target: T1, wt human JAK1, catalytic site (Homo sapiens, UniProt P23458); assay: HTRF KinEASE assay, JAK1; assay type: biochemical; settings: 2.5 μM ATP; read-out: IC50, Activity Toward JAK1
T1 construct: wt human JAK1, catalytic site; purchased ThermoFisher
In short: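 Two-step HTRF KinEASE assay: compound, kinase/biotinylated TK substrate and ATP were incubated at least 30 min at room temperature. Antibody plus streptavidin-XL665 was then added and plates were read after 60 min. Inhibition was derived from emission ratios according to the kit protocol.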

[2] = biological target: T2, wt human TYK2, catalytic site (Homo sapiens, UniProt P29597); assay: HTRF KinEASE assay, TYK2; assay type: biochemical; settings: 1 μM ATP; read-out: IC50, Activity Toward TYK2
T2 construct: wt human TYK2, catalytic site; purchased SignalChem
T2 sequence (P29597 897-1176 limits assumed): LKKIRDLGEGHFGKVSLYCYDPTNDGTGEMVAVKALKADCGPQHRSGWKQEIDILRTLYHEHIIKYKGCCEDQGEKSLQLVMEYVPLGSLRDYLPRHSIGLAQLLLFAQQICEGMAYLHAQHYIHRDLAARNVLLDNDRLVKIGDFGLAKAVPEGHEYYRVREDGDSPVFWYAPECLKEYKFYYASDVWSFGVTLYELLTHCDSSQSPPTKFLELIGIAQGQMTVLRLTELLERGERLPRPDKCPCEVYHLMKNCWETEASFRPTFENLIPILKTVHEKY
In short: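 HTRF KinEASE-TK readout with 1 μM biotinylated TK substrate in 1× kinase buffer, ≥30 min at room temperature, then antibody/streptavidin-XL665 detection for 60 min. TYK2 at 2 nM with 1 μM ATP; JAK2 at 1 nM with 100 μM ATP. Analysis uses emission ratios.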

[3] = biological target: T3, G2019S human LRRK2, catalytic site (Homo sapiens, UniProt Q5S007, G2019S); assay: TR-FRET LanthaScreen Eu Kinase Binding Assay, LRRK2 G2019S; settings: LRRK2(G2019); one range stated for wt and G2019; read-out: IC50, Activity Toward LRRK2(G2019)
T3 construct: G2019S human LRRK2, catalytic site; purchased ThermoFisher
T3 sequence (Q5S007 970-2527 G2019S limits assumed): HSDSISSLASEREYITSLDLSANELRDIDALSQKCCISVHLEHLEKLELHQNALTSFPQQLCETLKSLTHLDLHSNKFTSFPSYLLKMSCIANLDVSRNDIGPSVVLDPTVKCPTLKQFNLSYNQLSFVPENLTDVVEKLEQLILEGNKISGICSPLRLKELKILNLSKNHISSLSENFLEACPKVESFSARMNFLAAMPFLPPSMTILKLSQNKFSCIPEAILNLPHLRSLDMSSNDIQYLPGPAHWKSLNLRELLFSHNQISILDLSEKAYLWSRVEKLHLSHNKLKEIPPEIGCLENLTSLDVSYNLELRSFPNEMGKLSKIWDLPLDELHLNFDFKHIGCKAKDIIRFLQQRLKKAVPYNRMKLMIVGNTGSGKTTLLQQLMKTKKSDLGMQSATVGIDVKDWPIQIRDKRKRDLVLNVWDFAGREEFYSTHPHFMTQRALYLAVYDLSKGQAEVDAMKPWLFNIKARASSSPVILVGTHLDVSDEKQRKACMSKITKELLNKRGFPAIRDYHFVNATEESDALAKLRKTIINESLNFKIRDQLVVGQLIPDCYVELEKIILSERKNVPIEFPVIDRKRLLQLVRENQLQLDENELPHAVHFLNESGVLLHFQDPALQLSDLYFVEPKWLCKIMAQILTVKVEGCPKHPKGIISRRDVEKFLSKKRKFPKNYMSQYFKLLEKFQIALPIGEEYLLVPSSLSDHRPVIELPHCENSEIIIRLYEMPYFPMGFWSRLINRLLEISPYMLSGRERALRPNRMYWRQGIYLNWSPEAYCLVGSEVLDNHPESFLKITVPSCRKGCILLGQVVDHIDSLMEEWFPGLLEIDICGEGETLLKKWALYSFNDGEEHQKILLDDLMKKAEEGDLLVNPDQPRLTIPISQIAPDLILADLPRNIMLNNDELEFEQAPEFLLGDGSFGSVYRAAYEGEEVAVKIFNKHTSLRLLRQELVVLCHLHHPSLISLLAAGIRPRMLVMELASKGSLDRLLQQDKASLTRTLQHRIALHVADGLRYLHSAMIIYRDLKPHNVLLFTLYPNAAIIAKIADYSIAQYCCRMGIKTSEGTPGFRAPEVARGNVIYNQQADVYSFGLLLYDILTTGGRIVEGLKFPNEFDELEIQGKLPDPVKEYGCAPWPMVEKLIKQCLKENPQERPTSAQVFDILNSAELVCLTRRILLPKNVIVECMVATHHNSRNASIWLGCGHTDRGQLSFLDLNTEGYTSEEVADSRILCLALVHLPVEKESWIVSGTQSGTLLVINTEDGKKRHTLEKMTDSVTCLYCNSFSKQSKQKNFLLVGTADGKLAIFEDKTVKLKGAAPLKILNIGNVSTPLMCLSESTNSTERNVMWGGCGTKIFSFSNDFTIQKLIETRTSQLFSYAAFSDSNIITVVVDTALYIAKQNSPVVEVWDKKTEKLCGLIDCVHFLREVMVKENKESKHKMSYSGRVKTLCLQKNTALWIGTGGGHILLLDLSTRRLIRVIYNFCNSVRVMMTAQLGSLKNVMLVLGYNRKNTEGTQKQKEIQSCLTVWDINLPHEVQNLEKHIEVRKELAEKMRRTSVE
Protocol: (§1) The basic protocol for TR-FRET LanthaScreen Eu Kinase Binding Assay inhibitor studies were performed as follows. LanthaScreen Kinase Binding Assays (ThermoFisher/USA) to evaluate inhibitors were performed by addition of 5 μL of test compound in corresponding DMSO dilutions/5 μl of kinase/antibody mixture, 5 μL of tracer into 384 well small volume plates. After incubation for 1 hour at room temperature, plates were read. Data analysis of emission ratios was according LanthaScreen Eu Kinase Binding Assay protocol.
(§2) Kinase and assay components were adjusted to final concentrations according to kit protocol. For LRRK2: 5 nM wt human LRRK2, catalytic site, or G2019S human LRRK2, catalytic site (ThermoFisher/USA), 2 nM Eu-Anti-GST Antibody, 10 nM Kinase Tracer 236 in 1× Kinase Buffer A. For NUAK1: 8 nM wt human NUAK1, full length (ThermoFisher/USA), 2 nM Eu-Anti-His Antibody, 5 nM Kinase Tracer 236 in 1× Kinase Buffer A.

[4] = biological target: T4, wt human LRRK2, catalytic site (Homo sapiens, UniProt Q5S007); assay: TR-FRET LanthaScreen Eu Kinase Binding Assay, LRRK2 wt; settings: one range stated for wt and G2019, read-out: IC50, Activity Toward LRRK2(Wt)
T4 construct: 5 nM wt human LRRK2, catalytic site; purchased ThermoFisher
T4 sequence (Q5S007 970-2527 limits assumed): as the sequence (Q5S007 970-2527 G2019S limits assumed) above, with S1050G counted along it
Protocol: as §1, §2

T1 sequence (P23458 875-1153 limits assumed): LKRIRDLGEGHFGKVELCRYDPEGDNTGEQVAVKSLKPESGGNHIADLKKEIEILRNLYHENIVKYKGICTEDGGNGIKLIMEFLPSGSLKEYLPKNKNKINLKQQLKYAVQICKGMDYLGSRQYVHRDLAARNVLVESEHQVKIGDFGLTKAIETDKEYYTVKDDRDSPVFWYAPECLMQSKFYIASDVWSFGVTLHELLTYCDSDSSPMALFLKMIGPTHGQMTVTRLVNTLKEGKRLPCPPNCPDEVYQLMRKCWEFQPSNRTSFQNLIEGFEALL

Compound	pIC50 [1]	pIC50 [2]	pIC50 [3]	pIC50 [4]
NC(=O)c1nn(-c2c(Cl)cccc2Cl)cc1Nc1ccc(C(=O)N2CC3(CCC3)C2)cc1 [compound 46, 4-((4-(2-azaspiro[3.3]heptane-2-carbonyl)phenyl)amino)-1-(2,6-dichlorophenyl)-1H-pyrazole-3-carboxamide]	> 8.00	> 8.00	6.00 to 7.00	6.00 to 7.00
CCn1ncnc1-c1ccc(Nc2cn(-c3c(Cl)cccc3Cl)nc2C(N)=O)cc1 [compound 47, 1-(2,6-dichlorophenyl)-4-((4-(1-ethyl-1H-1,2,4-triazol-5-yl)phenyl)amino)-1H-pyrazole-3-carboxamide]	6.00 to 7.00	7.00 to 8.00	6.00 to 7.00	6.00 to 7.00
NC(=O)c1nn(-c2c(Cl)cccc2Cl)cc1Nc1ccc(-c2cccnn2)cc1 [compound 49, 1-(2,6-dichlorophenyl)-4-((4-(pyridazin-3-yl)phenyl)amino)-1H-pyrazole-3-carboxamide]	7.00 to 8.00	7.00 to 8.00	6.00 to 7.00	6.00 to 7.00
CN1CCC(N(C)C(=O)c2ccc(Nc3cn(-c4c(Cl)cccc4Cl)nc3C(N)=O)cc2)CC1 [compound 50, 1-(2,6-dichlorophenyl)-4-((4-(methyl(1-methylpiperidin-4-yl)carbamoyl)phenyl)amino)-1H-pyrazole-3-carboxamide]	6.00 to 7.00	7.00 to 8.00	6.00 to 7.00	6.00 to 7.00
Cc1cncnc1-c1ccc(Nc2cn(-c3c(Cl)cccc3Cl)nc2C(N)=O)cc1 [compound 51, 1-(2,6-dichlorophenyl)-4-((4-(5-methylpyrimidin-4-yl)phenyl)amino)-1H-pyrazole-3-carboxamide]	7.00 to 8.00	7.00 to 8.00	6.00 to 7.00	6.00 to 7.00
N#Cc1cccnc1-c1ccc(Nc2cn(-c3c(Cl)cccc3Cl)nc2C(N)=O)cc1 [compound 59, 4-((4-(3-cyanopyridin-2-yl)phenyl)amino)-1-(2,6-dichlorophenyl)-1H-pyrazole-3-carboxamide]	7.00 to 8.00	6.00 to 7.00	6.00 to 7.00	6.00 to 7.00
NC(=O)c1nn(-c2c(Cl)cccc2Cl)cc1Nc1ccc(-c2nnc3n2CCCCC3)cc1 [compound 63, 1-(2,6-dichlorophenyl)-4-((4-(6,7,8,9-tetrahydro-5H-[1,2,4]triazolo[4,3-a]azepin-3-yl)phenyl)amino)-1H-pyrazole-3-carboxamide]	6.00 to 7.00	7.00 to 8.00	7.00 to 8.00	7.00 to 8.00

Second part, the molecule after the results:

pIC50 [1]	pIC50 [2]	pIC50 [3]	pIC50 [4]	Compound
6.00 to 7.00	> 8.00	7.00 to 8.00	7.00 to 8.00	Cc1ccnnc1-c1ccc(Nc2cn(-c3c(Cl)cccc3Cl)nc2C(N)=O)cc1 [compound 45, 1-(2,6-dichlorophenyl)-4-((4-(4-methylpyridazin-3-yl)phenyl)amino)-1H-pyrazole-3-carboxamide]
6.00 to 7.00	7.00 to 8.00	6.00 to 7.00	6.00 to 7.00	CCc1cncnc1-c1ccc(Nc2cn(-c3c(Cl)cccc3Cl)nc2C(N)=O)cc1 [compound 52, 1-(2,6-dichlorophenyl)-4-((4-(5-ethylpyrimidin-4-yl)phenyl)amino)-1H-pyrazole-3-carboxamide]
7.00 to 8.00	6.00 to 7.00	6.00 to 7.00	6.00 to 7.00	Cc1ncn(C)c1-c1ccc(Nc2cn(-c3c(Cl)cccc3Cl)nc2C(N)=O)cc1 [compound 53, 1-(2,6-dichlorophenyl)-4-((4-(1,4-dimethyl-1H-imidazol-5-yl)phenyl)amino)-1H-pyrazole-3-carboxamide]
7.00 to 8.00	7.00 to 8.00	6.00 to 7.00	6.00 to 7.00	N#Cc1ccnnc1-c1ccc(Nc2cn(-c3c(Cl)cccc3Cl)nc2C(N)=O)cc1 [compound 60, 4-((4-(4-cyanopyridazin-3-yl)phenyl)amino)-1-(2,6-dichlorophenyl)-1H-pyrazole-3-carboxamide]

Reference: patent US20230373985A1 (Origenis Gmbh, priority 2020, published 2023)
